Legend:
[1] = relative to Angiopep-1 (250 nM); threshold defining 'efficiently transported across the BBB'; cited from earlier work
[2] = in situ brain perfusion assay, Angiopep-1 dimer vs Angiopep-2; format: in vivo
Description: Volume of brain parenchymal distribution was measured using the in situ brain perfusion assay (FIG. 6). […] Parenchymal uptake of the Angiopep-1 dimer and Angiopep-2 was also measured at various concentrations in situ (FIG. 7).

| Compound | transport across the BBB relative to Angiopep-1 [1] [%] | Volume of brain parenchymal distribution ([2]; as compared to monomeric Angiopep-2, especially at lower concentrations, FIG. 6) | Parenchymal uptake ([2]; various concentrations in situ, especially at lower concentrations (<500 nmol), compared to Angiopep-2 monomer, FIG. 7) |
| --- | --- | --- | --- |
| Angiopep-6: peptide vector, SEQ ID NO:111, T F F Y G G S R G K R N N F R T E E Y (TFFYGGSRGKRNNFRTEEY) | 38.5 | – | – |
| C[C@@H](O)[C@H](N)C(=O)N[C@@H](Cc1ccccc1)C(=O)N[C@@H](Cc1ccccc1)C(=O)N[C@@H](Cc1ccc(O)cc1)C(=O)NCC(=O)NCC(=O)N[C@@H](CSSC[C@H](NC(=O)CNC(=O)CNC(=O)[C@H](Cc1ccc(O)cc1)NC(=O)[C@H](Cc1ccccc1)NC(=O)[C@H](Cc1ccccc1)NC(=O)[C@@H](N)[C@@H](C)O)C(=O)N[C@@H](CCCNC(=N)N)C(=O)NCC(=O)N[C@@H](CCCCN)C(=O)N[C@@H](CCCNC(=N)N)C(=O)N[C@@H](CC(N)=O)C(=O)N[C@@H](CC(N)=O)C(=O)N[C@@H](Cc1ccccc1)C(=O)N[C@@H](CCCCN)C(=O)N[C@H](C(=O)N[C@@H](CCC(=O)O)C(=O)N[C@@H](CCC(=O)O)C(=O)N[C@@H](Cc1ccc(O)cc1)C(N)=O)[C@@H](C)O)C(=O)N[C@@H](CCCNC(=N)N)C(=O)NCC(=O)N[C@@H](CCCCN)C(=O)N[C@@H](CCCNC(=N)N)C(=O)N[C@@H](CC(N)=O)C(=O)N[C@@H](CC(N)=O)C(=O)N[C@@H](Cc1ccccc1)C(=O)N[C@@H](CCCCN)C(=O)N[C@H](C(=O)N[C@@H](CCC(=O)O)C(=O)N[C@@H](CCC(=O)O)C(=O)N[C@@H](Cc1ccc(O)cc1)C(N)=O)[C@@H](C)O [Angiopep-1 dimer] | – | Great uptake volumes | higher transport than the Angiopep-2 monomer |
